Results taken from ChEMBL document CHEMBL3751672, “PPAR agonists based on stilbene and its bioisosteres: biological evaluation and docking studies” (Medchemcomm, 2015).
The source made the active and inactive calls. The rule behind the calls is not given here.

Legend:
Assay type in all cases: cell-based
[1] = target: T1, Peroxisome proliferator-activated receptor alpha (Homo sapiens) (UniProt Q07869); test: Transactivation of human PPARalpha expressed in HEK293 cells at 150 uM incubated for 18 hrs by dual luciferase reporter gene assay relative to gemfibrozil
T1 sequence (whole entry): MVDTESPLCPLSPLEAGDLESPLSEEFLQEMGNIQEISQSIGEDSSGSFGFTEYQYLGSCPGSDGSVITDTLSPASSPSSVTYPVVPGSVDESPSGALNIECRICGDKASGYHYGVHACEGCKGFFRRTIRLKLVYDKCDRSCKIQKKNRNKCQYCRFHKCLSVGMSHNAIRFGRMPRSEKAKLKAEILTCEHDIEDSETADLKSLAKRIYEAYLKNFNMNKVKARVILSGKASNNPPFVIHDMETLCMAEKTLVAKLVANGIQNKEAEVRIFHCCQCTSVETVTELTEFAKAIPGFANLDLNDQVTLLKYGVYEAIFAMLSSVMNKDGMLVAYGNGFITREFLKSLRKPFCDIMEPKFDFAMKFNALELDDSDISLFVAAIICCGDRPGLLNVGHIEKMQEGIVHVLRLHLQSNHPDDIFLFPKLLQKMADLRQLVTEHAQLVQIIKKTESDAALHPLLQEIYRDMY

[2] = target: T2, Peroxisome proliferator-activated receptor alpha (Homo sapiens, UniProt Q07869); test: Transactivation of human PPARalpha expressed in HEK293 cells incubated for 18 hrs by dual luciferase reporter gene assay
T2 sequence (Q07869 whole entry): T1 sequence (whole entry)

[3] = target: T1, Peroxisome proliferator-activated receptor alpha (Homo sapiens); test: Agonist activity at PPARalpha in human HepG2 cells assessed as increase in CPT1A gene expression at 100 uM incubated for 24 hrs by real time quantitative PCR method relative to gemfibrozil
[4] = target: T1, Peroxisome proliferator-activated receptor alpha (Homo sapiens); test: Agonist activity at PPARalpha in human HepG2 cells assessed as increase in CPT1A gene expression incubated for 24 hrs by real time quantitative PCR method
[5] = target: T1, Peroxisome proliferator-activated receptor alpha (Homo sapiens); test: Agonist activity at PPARalpha in human HepG2 cells assessed as increase in CPT1A gene expression at 10 uM incubated for 24 hrs by real time quantitative PCR method
[6] = target: T1, Peroxisome proliferator-activated receptor alpha (Homo sapiens); test: Agonist activity at PPARalpha in human HepG2 cells assessed as increase in CPT1A gene expression at 10 uM incubated for 24 hrs by real time quantitative PCR method relative to gemfibrozil
[7] = target: T1, Peroxisome proliferator-activated receptor alpha (Homo sapiens); test: Agonist activity at PPARalpha in human HepG2 cells assessed as increase in CPT1A gene expression at EC50 incubated for 24 hrs by real time quantitative PCR method

Row | Efficacy [1] [%] | EC50 [2] [µM] | SMILES | further results
1 | 29 | – | CC(C)(CCCOc1ccc(/C=C/c2ccc(N)cc2)cc1)C(=O)O | –
2 | 118 | 3.3 | Cc1ccc(/C=C/c2ccc(OCCCC(C)(C)C(=O)O)cc2)cc1 | –
3 | 227 | 0.8 | CC(C)(CCCOc1ccc(/C=C/c2ccc(Cl)cc2)cc1)C(=O)O | fold change (FC) [3]: 2; Activity [4]: Dose-dependent effect; Activity [5]: Active; fold change (FC) [1]: 2
4 | 17 | – | CC(C)c1ccc(/C=C/c2ccc(OCCCC(C)(C)C(=O)O)cc2)cc1 | –
5 | 164 | 28.4 | COc1ccc(/C=C/c2ccc(OCCCC(C)(C)C(=O)O)cc2)cc1 | –

More lines, now with the values behind:

Row | SMILES | Efficacy [1] [%] | EC50 [2] [µM] | further results
6 | CC(C)(CCCOc1ccc(/C=C/c2ccc(C#N)cc2)cc1)C(=O)O | 23 | – | –
7 | CC(C)(CCCOc1ccc(/C=C/c2ccsc2)cc1)C(=O)O | 152 | 3.8 | –
8 | CC(C)(CCCOc1ccc(/C=C/c2ccc(Cl)cc2Cl)cc1)C(=O)O | 32 | – | –
9 | CC(C)(CCCOc1ccc(/C=C/c2ccc3ccccc3c2)cc1)C(=O)O | 123 | 90 | –
10 | CC(C)(CCCOc1ccc(/C=C/c2ccc(Cl)cc2Cl)cc1Cl)C(=O)O | 20 | – | –
11 | CC(C)(CCCOc1ccc(/C=C/c2ccncc2)cc1)C(=O)O | 115 | 103 | –
12 | CC(C)(CCCOc1ccc(/C=C/c2ccc(C(F)(F)F)cc2)cc1)C(=O)O | 205 | 0.76 | fold change (FC) [3]: 2; Activity [4]: Dose-dependent effect; Activity [5]: Active; fold change (FC) [1]: 2
13 | CC(C)(CCCOc1ccc(/C=C/c2ccccc2)cc1Cl)C(=O)O | 46 | – | –
14 | CC(C)(CCCOc1ccc(/C=C/c2ccccc2)cc1)C(=O)O | – | – | fold change (FC) [3]: 6; Activity [4]: Dose-dependent effect; fold change (FC) [1]: 2; fold change (FC) [6]: 2
15 | Cc1ccc(C)c(OCCCC(C)(C)C(=O)O)c1 | – | – | Activity [7]: Active
